This note sets out measurements from ChEMBL document CHEMBL2429824, “Computer-assisted design of dual-target anti-HIV-1 compounds” (Med Chem Res, 2013).

Molecules are shown by their SMILES.

For the first assay, the target named is Human immunodeficiency virus type 1 reverse transcriptase (Human immunodeficiency virus 1, UniProt Q72547). Description: Inhibition of HIV-1 reverse transcriptase.
Settings: not given
Compound `N#Cc1c(N)cccc1[S+]([O-])c1cc(Cl)ccc1Cl` (centres undefined) had an IC50 of 6.31 µM.
On the same count and under the same terms, with `COc1ccc(S(=O)(=O)c2cccc(N)c2C#N)cc1` the figure was 13.2 µM; with `COc1cc([S+]([O-])c2cccc(N)c2C#N)cc(C(F)(F)F)c1` (centres undefined), 0.912 µM.

The next assay deals with Human immunodeficiency virus 1. Briefly: Antiviral activity against HIV-1 infected in human MT-4 cells. The format is functional, organism-based. Conditions: Human immunodeficiency virus 1, MT4.
`[N-]=[N+]=N[C@H]1C[C@H](n2cnc3nc(N)nc(N4CCCC4)c32)O[C@@H]1CO`: it took 7.94 µM to reach half-maximal inhibition (IC50).
On the same count and under the same terms, with `[N-]=[N+]=N[C@H]1C[C@H](n2cnc3nc(N)nc(O)c32)O[C@@H]1CO` the figure was 5.01 µM.
Still for that read-out and setting: as for `COc1nc(N)nc2ncn([C@H]3C[C@H](N=[N+]=[N-])[C@@H](CO)O3)c12`, the figure is 8.91 µM.
With `CCOc1nc(N)nc2ncn([C@H]3C[C@H](N=[N+]=[N-])[C@@H](CO)O3)c12`, the half-inhibitory concentration (IC50) was 22.9 µM.
Same read-out and setting: as for `CCCOc1nc(N)nc2ncn([C@H]3C[C@H](N=[N+]=[N-])[C@@H](CO)O3)c12`, the figure is 8.91 µM; as for `CC(C)Oc1nc(N)nc2ncn([C@H]3C[C@H](N=[N+]=[N-])[C@@H](CO)O3)c12`, 21.9 µM.
On the same count and under the same terms, with `CCCCOc1nc(N)nc2ncn([C@H]3C[C@H](N=[N+]=[N-])[C@@H](CO)O3)c12` the figure was 19.1 µM; with `[N-]=[N+]=N[C@H]1C[C@H](n2cnc3nc(N)nc(OC4CCC4)c32)O[C@@H]1CO`, 5.01 µM; with `[N-]=[N+]=N[C@H]1C[C@H](n2cnc3nc(N)nc(Oc4ccccc4)c32)O[C@@H]1CO`, 28.2 µM.
For `[N-]=[N+]=N[C@H]1C[C@H](n2cnc3nc(N)nc(OCc4ccccc4)c32)O[C@@H]1CO`, the IC50 was 7.94 µM.
Same read-out and setting: with `[N-]=[N+]=N[C@H]1C[C@H](n2cnc3nc(N)nc(N)c32)O[C@@H]1CO` the figure was 2 µM; with `CNc1nc(N)nc2ncn([C@H]3C[C@H](N=[N+]=[N-])[C@@H](CO)O3)c12`, 52.5 µM.
The same measure, in the same setting: with `CCNc1nc(N)nc2ncn([C@H]3C[C@H](N=[N+]=[N-])[C@@H](CO)O3)c12` the figure was 17 µM.
Take `CCCNc1nc(N)nc2ncn([C@H]3C[C@H](N=[N+]=[N-])[C@@H](CO)O3)c12`: the IC50 is 12 µM.
The same measure, in the same setting: with `[N-]=[N+]=N[C@H]1C[C@H](n2cnc3nc(N)nc(NC4CC4)c32)O[C@@H]1CO` the figure was 18.2 µM; with `CCCCNc1nc(N)nc2ncn([C@H]3C[C@H](N=[N+]=[N-])[C@@H](CO)O3)c12`, 28.8 µM.
`[N-]=[N+]=N[C@H]1C[C@H](n2cnc3nc(N)nc(NC4CCC4)c32)O[C@@H]1CO` had an IC50 of 14.1 µM.
For the compound `[N-]=[N+]=N[C@H]1C[C@H](n2cnc3nc(N)nc(NCCc4ccccc4)c32)O[C@@H]1CO`, the half-maximal inhibitory concentration (IC50) was 112 µM.
Take `CN(C)c1nc(N)nc2ncn([C@H]3C[C@H](N=[N+]=[N-])[C@@H](CO)O3)c12`: the IC50 was 20.9 µM. Compared with the last compound, the IC50 is about 5.4-fold lower.
`CCN(C)c1nc(N)nc2ncn([C@H]3C[C@H](N=[N+]=[N-])[C@@H](CO)O3)c12` had a half-inhibitory concentration (IC50) of 12 µM.
On the same count and under the same terms, as for `CCCN(C)c1nc(N)nc2ncn([C@H]3C[C@H](N=[N+]=[N-])[C@@H](CO)O3)c12`, the figure is 11 µM; as for `CN(c1nc(N)nc2ncn([C@H]3C[C@H](N=[N+]=[N-])[C@@H](CO)O3)c12)C1CC1`, 3.98 µM.
As for `[N-]=[N+]=N[C@H]1C[C@H](n2cnc3nc(N)nc(N4CCC4)c32)O[C@@H]1CO`, it took 8.91 µM to reach half-maximal inhibition (IC50).
On the same count and under the same terms, with `[N-]=[N+]=N[C@H]1C[C@H](n2cnc3nc(N)nc(Cl)c32)O[C@@H]1CO` the figure was 6.03 µM; with `N#Cc1c(N)cccc1S(=O)(=O)c1cccc(C(F)(F)F)c1`, 34.7 µM; with `COc1cccc(S(=O)(=O)c2cccc(N)c2C#N)c1`, 0.912 µM.
